Data published in patent US20150148311A1, “NON-SYSTEMIC TGR5 AGONISTS” (Ardelyx, Inc., priority 2011, published 2015).

How the values were obtained:
[1] = biological target: T1, human TGR5 (Homo sapiens, UniProt Q8TDU6); assay: Cell-based TGR5 assay, HEK293 cells stably expressing human TGR5, cAMP by HTRF; conditions: HEK293 cells stably expressing human TGR5, 30 min at 37 C, 0.05 nM to 10 μM, read-out: pEC50 Human TGR5 (converted)
T1 construct: expressed in transfected cells
T1 sequence (Q8TDU6 1-330): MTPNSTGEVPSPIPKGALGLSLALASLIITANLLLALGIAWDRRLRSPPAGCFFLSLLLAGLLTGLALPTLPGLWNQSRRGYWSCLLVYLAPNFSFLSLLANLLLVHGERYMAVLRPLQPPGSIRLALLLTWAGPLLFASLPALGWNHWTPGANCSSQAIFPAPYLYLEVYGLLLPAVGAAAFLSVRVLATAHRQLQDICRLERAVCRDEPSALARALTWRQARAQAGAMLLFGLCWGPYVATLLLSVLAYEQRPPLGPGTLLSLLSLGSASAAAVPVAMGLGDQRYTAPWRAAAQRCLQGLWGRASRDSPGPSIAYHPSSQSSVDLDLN
Procedure, shortened: (§1)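 cAMP HTRF read-out, converted to concentration via standard curve, after a 30 min, 37 °C compound exposure in HBSS with 10 mM HEPES pH 7.4 and 0.5 mM IBMX, compounds serially diluted 3-fold from 10 mM DMSO stock then 100-fold. Cells: stable human TGR5 HEK293, or NCI-H716 expressing TGR5 endogenously.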

[2] = biological target: T2, endogenously expressed TGR5 in NCI H716 (Homo sapiens, UniProt Q8TDU6); assay: Cell-based TGR5 assay, NCI-H716 cells endogenously expressing human TGR5, cAMP by HTRF; conditions: 30 min at 37 C, 22 nM to 50 μM, read-out: pEC50 endogenously expressed TGR5 in NCI H716 (converted)
T2 construct: human caecum carcinoma cell line NCI-H716 which endogenously expresses human TGR5; endogenous in cells; host or cells: NCI-H716
T2 sequence (Q8TDU6 1-330): T1 sequence (Q8TDU6 1-330)
Procedure, shortened: as §1

[3] = biological target: T3, human IBAT (Homo sapiens, UniProt Q12908); assay: IBAT counter screen, [3H]taurocholic acid uptake in IBAT-transfected HEK293 cells; assay type: cell-based; conditions: read-out: pEC50 human IBAT (converted)
T3 construct: expressed in transfected cells; host or cells: HEK293
T3 sequence (Q12908 1-348): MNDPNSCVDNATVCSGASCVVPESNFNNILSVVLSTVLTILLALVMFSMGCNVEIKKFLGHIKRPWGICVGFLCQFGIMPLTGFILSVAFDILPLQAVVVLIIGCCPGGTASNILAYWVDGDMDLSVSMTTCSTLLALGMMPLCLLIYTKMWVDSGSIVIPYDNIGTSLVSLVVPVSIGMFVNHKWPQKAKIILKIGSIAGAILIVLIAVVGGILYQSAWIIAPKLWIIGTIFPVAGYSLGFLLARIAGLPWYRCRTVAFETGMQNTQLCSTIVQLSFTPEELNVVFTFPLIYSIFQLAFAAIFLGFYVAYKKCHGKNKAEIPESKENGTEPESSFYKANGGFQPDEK
Procedure: Following a 40-min incubation, the solution was removed, and the cells were washed twice with uptake buffer. Cells were lysed by addition of 20 μL 0.1% Tween 80 followed by 100 μL scintillation fluid and counted using a TopCount (Perkin Elmer).

EC50 [1] [µM] | EC50 [2] [µM] | EC50 [3] [µM] | Compound
1.26 to 50.1 | 1.26 to 50.1 | > 25.1 | O=C([C@@H]1CCCCN1Cc1cc(Cl)ccc1Cl)N1CCCc2ccccc21 [Example 11, (S)-(1-(2,5-dichlorobenzyl)piperidin-2-yl)(3,4-dihydroquinolin-1(2H)-yl)methanone]
1.26 to 50.1 | 1.26 to 50.1 | > 25.1 | Cc1nn(C)c(Oc2cc(Cl)ccc2Cl)c1C(=O)N1CCN(C2CC2)c2ccccc21 [Example 65, 1-cyclopropyl-4-[[5-(2,5-dichlorophenoxy)-1,3-dimethyl-1H-pyrazol-4-yl]carbonyl]-1,2,3,4-tetrahydroquinoxaline]
1.26 to 50.1 | 1.26 to 50.1 | > 25.1 | O=C([C@@H]1CCC(=O)N1Cc1cc(Cl)ccc1Cl)N1CCN(C2CC2)c2ccccc21 [Example 25, (S)-5-(4-cyclopropyl-1,2,3,4-tetrahydroquinoxaline-1-carbonyl)-1-(2,5-dichlorobenzyl)pyrrolidin-2-one]
1.26 to 50.1 | 1.26 to 50.1 | > 25.1 | O=C([C@@H]1CCCN1S(=O)(=O)c1cc(Cl)ccc1Cl)N1CCN(C2CC2)c2ccccc21 [Example 18]
< 0.1 | 0.126 to 1 | > 25.1 | CC(C)(COc1cc(Cl)ccc1Cl)C(=O)N1CCN(C2CC2)c2ccccc21 [Example 31, 1-(4-cyclopropyl-1,2,3,4-tetrahydroquinoxalin-1-yl)-3-(2,5-dichlorophenoxy)-2,2-dimethylpropan-1-one]
< 0.1 | 0.126 to 1 | > 25.1 | O=C(N1CCN(C2CC2)c2ccccc21)C1(OCc2cc(Cl)ccc2Cl)CCCC1 [Example 8, (4-cyclopropyl-3,4-dihydroquinoxalin-1(2H)-yl)(1-(2,5 dichlorobenzyloxy)cyclopentyl)methanone]
1.26 to 50.1 | 1.26 to 50.1 | > 25.1 | CC1(C)C[C@@H](C(=O)N2CCN(C3CC3)c3ccccc32)N(Cc2cc(Cl)ccc2Cl)C1 [Example 19, (S)-(4-cyclopropyl-3,4-dihydroquinoxaline-1 (2H)-yl)(1-(2,5-dichlorobenzyl)-4,4-dimethylpyrrolidin-2-yl)methanone]
0.126 to 1 | 0.126 to 1 | > 25.1 | O=C(c1cccn1Cc1cc(Cl)ccc1Cl)N1CCN(C2CC2)c2ccccc21 [Example 61, (4-cyclopropyl-3,4-dihydroquinoxalin-1(2H)-yl)(1-(2,5-dichlorobenzyl)-1H-pyrrol-2-yl)methanone]
< 0.1 | 0.126 to 1 | > 25.1 | CN(C(=O)C1(OCc2cc(Cl)ccc2Cl)CC1)c1ccccc1OCC1CC1 [Example 40, N-(2-(cyclopropylmethoxy)phenyl)-1-(2,5-dichlorobenzyloxy)-N-methylcyclopropanecarboxamide]
1.26 to 50.1 | 1.26 to 50.1 | > 25.1 | O=C(C1CCN(Cc2cc(Cl)ccc2Cl)C1)N1CCN(C2CC2)c2ccccc21 (stereo not drawn) [Example 57, (4-cyclopropyl-3,4-dihydroquinoxalin-1(2H)-yl)(1-(2,5-dichlorobenzyl)pyrrolidin-3-yl) methanone]
1.26 to 50.1 | 1.26 to 50.1 | > 25.1 | O=C(N1CCN(C2CC2)c2ccccc21)N1CCCC1Cc1ccccc1Cl (stereo not drawn) [Example 28]
1.26 to 50.1 | 1.26 to 50.1 | > 25.1 | O=C(c1nccn1Cc1cc(Cl)ccc1Cl)N1CCN(C2CC2)c2ccccc21 [Example 62, (4-cyclopropyl-3,4-dihydroquinoxalin-1(2H)-yl)(1-(2,5-dichlorobenzyl)-1H-imidazol-2-yl)methanone]
1.26 to 50.1 | 1.26 to 50.1 | > 25.1 | O=C(c1ncoc1Cc1cc(Cl)ccc1Cl)N1CCN(C2CC2)c2ccccc21 [Example 66, 1-cyclopropyl-4-([5-[(2,5-dichlorophenyl)methyl]-1,3-oxazol-4-yl]carbonyl)-1,2,3,4-tetrahydroquinoxaline]
